Key:
[1] = system: Phakopsora pachyrhizi (F129L); assay: Protective control of soybean rust on soybeans (PHAKPA P2); type: in vivo; conditions: for % PHAKPA (F129L) Disease level P2 at 4 ppm: protective P2, 4 ppm; for % PHAKPA (F129L) Disease level P2 at 4 ppm / % PHAKPA (F129L) Disease level P2 at 16 ppm: soybean rust F129L; for % PHAKPA (F129L) Disease level P2 at 16 ppm: protective P2, 16 ppm
[2] = system: Phakopsora pachyrhizi (F129L); assay: Protective control of soybean rust on soybeans (PHAKPA P6); type: in vivo; conditions: for % PHAKPA (F129L) Disease level P6 at 4 ppm: protective P6, 4 ppm; for % PHAKPA (F129L) Disease level P6 at 4 ppm / % PHAKPA (F129L) Disease level P6 at 16 ppm: soybean rust F129L; for % PHAKPA (F129L) Disease level P6 at 16 ppm: protective P6, 16 ppm
[3] = P6 protective, % diseased leaf area
[4] = P2 protective, % diseased leaf area

SMILES: CO/N=C(/C(=O)OC)c1ccccc1CO/N=C(\C)c1ccccc1 [reference compound]
- PHAKPA (F129L) Disease level (%) P2 at 16 ppm ([1]; P2 protective, 16 ppm, % diseased leaf area): 87%
- PHAKPA (F129L) Disease level (%) P6 at 16 ppm [2, 3]: 43%

SMILES: CO/N=C(/C(=O)OC)c1cccc(C)c1CO/N=C(\C)c1ccc(F)cc1Cl [compound 256]
- % PHAKPA (F129L) Disease level P2 at 4 ppm [1]: 50%
- % PHAKPA (F129L) Disease level P2 at 16 ppm [1]: 18%
- % PHAKPA (F129L) Disease level P6 at 4 ppm [2]: 70%
- % PHAKPA (F129L) Disease level P6 at 16 ppm [2]: 20%

SMILES: CO/N=C(/C(=O)OC)c1cccc(C)c1CO/N=C(\C)c1ccc(C)c(C(F)(F)F)c1 [compound 229]
- % PHAKPA (F129L) Disease level P2 at 4 ppm [1]: 27%
- % PHAKPA (F129L) Disease level P2 at 16 ppm [1]: 2%
- % PHAKPA (F129L) Disease level P6 at 4 ppm [2]: 77%
- % PHAKPA (F129L) Disease level P6 at 16 ppm [2]: 6%

SMILES: CNC(=O)/C(=N/OC)c1cccc(C(F)F)c1CO/N=C(\C)c1cccc(C(F)(F)F)c1 [Ex. 23]
- % PHAKPA (F129L) Disease level P2 at 4 ppm [1]: 12%
- % PHAKPA (F129L) Disease level P2 at 16 ppm [1]: 1%
- % PHAKPA (F129L) Disease level P6 at 4 ppm [2]: 20%
- % PHAKPA (F129L) Disease level P6 at 16 ppm [2]: 1%

SMILES: CNC(=O)/C(=N/OC)c1cccc(OC)c1CO/N=C(\C)c1cccc(C(F)(F)F)c1 [compound 461]
- % PHAKPA (F129L) Disease level P2 at 4 ppm [1]: 26%
- % PHAKPA (F129L) Disease level P2 at 16 ppm [1]: 2%
- % PHAKPA (F129L) Disease level P6 at 4 ppm [2]: 52%
- % PHAKPA (F129L) Disease level P6 at 16 ppm [2]: 6%

SMILES: CNC(=O)/C(=N/OC)c1ccccc1CO/N=C(\C)c1ccc(Cl)cc1 [reference compound]
- PHAKPA (F129L) Disease level (%) P2 at 4 ppm [1, 4]: 40%
- PHAKPA (F129L) Disease level (%) P6 at 4 ppm ([2]; P6 protective, 4 ppm, % diseased leaf area): 80%

SMILES: CNC(=O)/C(=N/OC)c1cccc(C)c1CO/N=C(\C)c1ccc(C)cc1OC(F)(F)F [compound 340]
- % PHAKPA (F129L) Disease level P2 at 4 ppm [1]: 23%
- % PHAKPA (F129L) Disease level P2 at 16 ppm [1]: 4%
- % PHAKPA (F129L) Disease level P6 at 4 ppm [2]: 42%
- % PHAKPA (F129L) Disease level P6 at 16 ppm [2]: 7%

SMILES: CNC(=O)/C(=N/OC)c1cccc(C)c1CO/N=C(\C)c1ccc(CC2COC2)cc1 [compound 83]
- % PHAKPA (F129L) Disease level P2 at 4 ppm [1]: 97%
- % PHAKPA (F129L) Disease level P2 at 16 ppm [1]: 73%

SMILES: CNC(=O)/C(=N/OC)c1cccc(C)c1CO/N=C(\C)c1ccccc1OC(C)C [compound 315]
- % PHAKPA (F129L) Disease level P2 at 4 ppm [1]: 100%
- % PHAKPA (F129L) Disease level P2 at 16 ppm [1]: 60%

SMILES: CNC(=O)/C(=N/OC)c1cccc(C)c1CO/N=C(\C)c1ccccc1OCOC [compound 314]
- % PHAKPA (F129L) Disease level P2 at 4 ppm [1]: 100%
- % PHAKPA (F129L) Disease level P2 at 16 ppm [1]: 40%

SMILES: CNC(=O)/C(=N/OC)c1cccc(C)c1CO/N=C(\C)c1ccc(OC(F)(F)F)cc1Cl [compound 271]
- % PHAKPA (F129L) Disease level P2 at 4 ppm [1]: 5%
- % PHAKPA (F129L) Disease level P2 at 16 ppm [1]: 1%

SMILES: CO/N=C(/C(=O)OC)c1cccc(C)c1CO/N=C(\C)c1ccc(CC2COC2)cc1 [compound 82]
- % PHAKPA (F129L) Disease level P2 at 4 ppm [1]: 87%
- % PHAKPA (F129L) Disease level P2 at 16 ppm [1]: 57%

SMILES: CO/N=C(/C(=O)OC)c1cccc(C)c1CO/N=C(\OC)c1cccc(C(F)(F)F)c1 [drawing 977, reference compound]
- PHAKPA (F129L) Disease level (%) P6 at 16 ppm [2, 3]: 23%

SMILES: CNC(=O)/C(=N/OC)c1cccc(C)c1CO/N=C(\C)c1cc(C(F)(F)F)ccc1C(F)(F)F [compound 272]
- % PHAKPA (F129L) Disease level P2 at 4 ppm [1]: 60%
- % PHAKPA (F129L) Disease level P2 at 16 ppm [1]: 8%

SMILES: CNC(=O)/C(=N/OC)c1cccc(C)c1CO/N=C(\C)c1ccccc1Oc1ccccc1 [compound 321]
- % PHAKPA (F129L) Disease level P2 at 4 ppm [1]: 100%
- % PHAKPA (F129L) Disease level P2 at 16 ppm [1]: 40%

SMILES: CNC(=O)/C(=N/OC)c1cccc(C)c1CO/N=C(\C)c1cc(C(F)(F)F)ccc1C [compound 273]
- % PHAKPA (F129L) Disease level P2 at 4 ppm [1]: 60%
- % PHAKPA (F129L) Disease level P2 at 16 ppm [1]: 3%

SMILES: CO/N=C(/C(=O)OC)c1cccc(C)c1CO/N=C(\C)c1cccc(OC(F)(F)F)c1 [drawing 936, reference compound]
- PHAKPA (F129L) Disease level (%) P2 at 4 ppm [1, 4]: 17%

SMILES: CCOc1ccccc1/C(C)=N/OCc1c(C)cccc1/C(=N\OC)C(=O)NC [compound 312]
- % PHAKPA (F129L) Disease level P2 at 4 ppm [1]: 100%
- % PHAKPA (F129L) Disease level P2 at 16 ppm [1]: 53%

SMILES: CNC(=O)/C(=N/OC)c1cccc(C)c1CO/N=C(\OC)c1cccc(C)c1 [drawing 974, reference compound]
- PHAKPA (F129L) Disease level (%) P6 at 16 ppm [2, 3]: 45%
